19 compounds from PubChem BioAssay (NCI) can be followed below.

“And” between values parts separate entries of the source, which are not always exact repeats. Identical values can stand only once.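 Briefly, cells in 96-well plates were exposed to five compound concentrations for 48 h, and endpoints were estimated by linear interpolation. GI50 is the concentration that inhibits growth by half. TGI denotes the concentration required for complete inhibition of growth.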

Test in all cases: growth of human tumour cells (NCI), 48 h
The subject of assay [1] is HCC-2998 colon.
The test system of assay [2] is HCT-116 colon.
Assay [3] relates to HOP-62 NSCLC.
In assay [4] the test system is KM12 colon.
Assay [5] deals with M14 melanoma.
In assay [6] the test system is MOLT-4 leukemia.
Assay [7] has as its system SK-MEL-5 melanoma.
In assay [8] the test system is UACC-257 melanoma.
Assay [9] concerns UO-31 renal.

For the compound `CCCCCCCCSC1=CC(=O)c2nc3ccccc3c3ccnc1c23`, the GI50 is above 100 µM in assay [1]; 43.1 µM in assay [2]; above 100 µM in assay [3]; above 100 µM in assay [4]; above 100 µM in [5]; 6.03 µM in assay [6]. The GI50 in assay [7] was 98.8 µM; in assay [8], 41.1 µM; in assay [9] it was 49.5 µM. Further, the TGI in assay [1], in assay [2], in assay [3], in assay [4], in assay [5] and in assay [6] was above 100 µM throughout. Further, the TGI in assay [7], in assay [8] and in [9] was above 100 µM in each case.

Take `CSCCCN(CCCSC)CCCSC`: the TGI in assay [1], in [2], in [3], in assay [4], in assay [5] and in [6] was above 100 µM in each case. Moreover, the TGI in [7], in assay [8] and in assay [9] was above 100 µM each time.

In the case of `O=C(O)c1cc(C(=O)O)cc(N2C(=O)c3ccccc3C2=O)c1`, the TGI in [1], in assay [2], in assay [3], in assay [4], in [5] and in assay [7] was above 100 µM each time. The TGI in [8] and in assay [9] was above 100 µM in each case.

Take `CCOc1ccccc1-n1c(CN2CCN(C(=O)COc3ccc(CNCCCCCCN4C5CCCC4CC(OC(=O)Nc4cc(C)ccc4OC)C5)cc3)CC2)nc2ccccc2c1=O` (stereo unspecified): the GI50 in [1] was 1.57 µM; in assay [2], 0.616 µM; in assay [3] it was 1.7 µM; in [4], 1.66 µM; in assay [5], 1.43 µM; in [6] it was 0.68 µM. The GI50 in assay [7] is 1.52 µM; in assay [8], 1.88 µM; in assay [9], 4.07 µM. Besides, the TGI was found to be 3.15 µM in [1]; 1.32 µM in assay [2]; 3.25 µM in [3]; 3.27 µM in [4]; 3.01 µM in assay [5]; 1.5 µM in [6]. The TGI in assay [7] is 2.92 µM; in assay [8], 3.45 µM; in assay [9], 8.15 µM.

For the compound `Cc1cc(=O)n2[nH]c(-c3ccc(C(C)(C)C)cc3)cc2n1`, the GI50 in [1] is 8.59 µM; in [2] it was 8.25 µM; in assay [3] it was 17.5 µM; in [4], 7.04 µM; in [5] it was 12.7 µM; in assay [6], 6.56 µM. Besides, the GI50 in assay [7] was 1.82 µM; in assay [8] it was 4.32 µM; in assay [9], 3.17 µM. The TGI was above 100 µM in assay [1]; above 100 µM in assay [2]; 76.9 µM in assay [3]; 53.9 µM in [4]; above 100 µM in [5]; above 100 µM in assay [6]. Also, the TGI in assay [7] was 12.1 µM; in [8], 49.6 µM; in [9] it was above 100 µM.

In the case of `O=[N+]([O-])c1cnc(Sc2ccncn2)s1`, the GI50 is 5.46 µM in [1]; 1.84 µM in assay [2]; 21.8 µM in assay [3]; 10.8 µM in assay [4]; 2.76 µM in [5]; 2 µM in [6]. Besides, the GI50 in [7] was 4.86 µM; in [8], 2.94 µM; in assay [9] it was 1.75 µM. In addition, the TGI in assay [1] came to 10.7 µM; in assay [2] it was 3.33 µM; in assay [3], 40.2 µM; in assay [4] it was 23.1 µM; in assay [5], 7.25 µM; in [6], 5.04 µM. In addition, the TGI was found to be 14.6 µM in assay [7], 7.5 µM in [8] and 3.2 µM in assay [9].

For `CC(=O)[O][Hg][c]1c(N)c(C)cc(C)c1F`, the GI50 in assay [1] is 2.28 µM; in assay [2] it was 1.88 µM; in [3], 2.75 µM; in assay [4], 10.6 µM; in [5], 1.55 µM; in assay [6], 1.22 µM. For the same compound, the GI50 in [7] is 1.48 µM; in assay [8], 1.51 µM; in assay [9] it was 1.64 µM. The TGI turned out to be 4.87 µM in assay [1]; 3.92 µM in assay [2]; 5.49 µM in [3]; 22.7 µM in [4]; 3.29 µM in [5]; 7.12 µM in assay [6]. Besides, the TGI in [7] was determined as 2.88 µM; in assay [8] it was 2.96 µM; in assay [9] it was 3.15 µM.

As for `COc1ccc(-c2cc(-c3ccc(Nc4nc(Nc5ccccc5)nc(Nc5ccc(Cl)cc5)n4)cc3)nc(N)c2C#N)cc1`, the GI50 in [1] was 1.41 µM; in assay [2], 0.675 µM; in assay [3], 1.93 µM; in [4], 0.961 µM; in assay [5] it was 0.887 µM; in [6], 0.958 µM. For the same compound, the GI50 was 1.18 µM in assay [7], 1.25 µM in [8] and 0.72 µM in assay [9]. Further, the TGI in assay [1] is 4.41 µM; in [2], 1.37 µM; in assay [3], 8.98 µM; in assay [4], 2.14 µM; in assay [5], 1.81 µM; in assay [6], above 50 µM. In addition, the values for the TGI in assay [7], in assay [8] and in assay [9] were 3.03 µM, 3.15 µM and 1.49 µM, respectively.

As to `Cn1ccnc1C(=O)/C=C/c1ccc(CC(=O)Nc2ccc(Br)cc2)cc1`, the GI50 in [1] was 2.95 µM; in assay [2], 1.56 µM; in assay [3], 3.34 µM; in [4], 2.66 µM; in assay [5], 2.63 µM; in [6] it was 3.69 µM. In addition, the GI50 is 3.58 µM in assay [7], 15.6 µM in assay [8] and 2.19 µM in assay [9]. Also, the TGI in [1] was 5.9 µM; in assay [2] it was 4.63 µM; in [3], 7.9 µM; in assay [4], 5.51 µM; in [5], 6.07 µM; in assay [6], 14.8 µM. Also, the results for the TGI in assay [7], in assay [8] and in assay [9] were 8.25 µM, above 16.7 µM and 4.39 µM, respectively.

Consider `COc1cc(/C=C/c2cc(/C=C/c3ccc(O)c(OC)c3)n(C(=O)Nc3ccc(F)cc3)n2)ccc1O`, for which the GI50 in assay [1] was 2.53 µM; in assay [2], 0.422 µM; in [3] it was 1.07 µM; in assay [4], 0.46 µM; in [5] it was 0.46 µM; in [6], 0.471 µM. Moreover, the GI50 in assay [7] is 0.418 µM; in [8] it was 2.17 µM; in [9], 0.587 µM. Also, the TGI in assay [1] was 10.6 µM; in [2], 10.3 µM; in assay [3] it was 9.36 µM; in [4], 9.12 µM; in assay [5] it was 7.5 µM; in [6] it was above 22.8 µM. Also, the TGI was determined as 3.25 µM in [7], 9.12 µM in assay [8] and 6.27 µM in assay [9].

Turning to `CNC(=O)c1cc(Oc2ccc3nc(NC(=O)Nc4ccc(Cl)c(C(F)(F)F)c4)sc3c2)ccn1`, the GI50 in assay [2] is 1.89 µM; in assay [3] it was 1.94 µM; in assay [4] it was 3.41 µM; in assay [8], 3.37 µM. Moreover, the TGI was 5.39 µM in assay [2], 4.74 µM in assay [3], above 100 µM in [4] and above 100 µM in assay [8].

Regarding `Cc1cc(=O)[nH]c2cc3oc4ccccc4c3cc12`, the TGI is 16.3 µM in assay [1]; above 100 µM in assay [2]; above 100 µM in [3]; above 100 µM in assay [4]; above 100 µM in [5]; above 48.5 µM in [6]. For the same compound, the TGI in [7], in assay [8] and in assay [9] was above 100 µM throughout.

Regarding `O=C(CCl)N1c2ccccc2Oc2ccc3ccccc3c21`, the GI50 in [1] was 1.86 µM; in assay [2], 0.358 µM; in assay [3] it was 1.81 µM; in assay [4], 1.8 µM; in assay [5], 1.14 µM; in assay [6] it was 0.339 µM. The values for the GI50 in [7], in assay [8] and in [9] were 1.59 µM, 1.53 µM and 1.17 µM, respectively. Besides, the TGI is 3.59 µM in assay [1]; 1.29 µM in assay [2]; 3.25 µM in assay [3]; 3.3 µM in [4]; 2.56 µM in assay [5]; 1.95 µM in assay [6]. Also, the TGI was 2.98 µM in [7], 3.16 µM in [8] and 2.53 µM in assay [9].

Turning to `CCCCCCCC(=O)SCC/C=C/[C@@H]1CC(=O)NCc2cccc(n2)C2=N[C@@](C)(CS2)C(=O)N[C@@H](C(C)C)C(=O)N1`, the GI50 in assay [1] is 1.02 µM; in assay [2], 0.166 µM; in [3], 1.07 µM; in assay [4], 1.21 µM; in assay [5] it was 1.32 µM; in assay [6] it was 1.01 µM. The results for the GI50 in assay [7] and in assay [9] were 0.924 µM and 4.54 µM, respectively. Besides, the TGI was 7.48 µM in [1]; 5.09 µM in [2]; above 33.3 µM in assay [3]; above 33.3 µM in [4]; above 33.3 µM in assay [5]; above 33.3 µM in assay [6]. Besides, the values for the TGI in assay [7] and in assay [9] were 8.35 µM and above 33.3 µM, respectively.

Consider `CC1=C(C(=O)Nc2ccc(F)c(Cl)c2)C(c2ccc(Cl)cc2)NC(=O)N1` (stereo unspecified), for which the GI50 was 14.6 µM in assay [1]; 12.8 µM in assay [2]; 15.5 µM in assay [3]; 24.2 µM in [4]; 16.5 µM in assay [5]; 15.5 µM in [7]. The GI50 was 19.4 µM in assay [8] and 15.1 µM in assay [9]. For the same compound, the TGI in assay [1] is 27.7 µM; in [2] it was 25.4 µM; in assay [3], 30.8 µM; in [4], 52.1 µM; in [5], 33.6 µM; in assay [7] it was 30.4 µM. The TGI in assay [8] came out at 38.6 µM; in [9], 30.1 µM.

Turning to `COC(=O)[C@@H](C)C[C@H](Cc1ccc(F)cc1)NC(=O)c1csc([C@@H](C[C@H](C(C)C)N(C)C(=O)[C@@H](NC(=O)[C@H]2CCCCN2C)C(C)C)OC(C)=O)n1`, the TGI in [1] is above 16.7 µM; in assay [2], 0.225 µM; in assay [3], above 16.7 µM; in assay [4] it was above 16.7 µM; in assay [5] it was 0.763 µM and 0.079 µM; in assay [6], above 16.7 µM. The TGI in assay [8] and in [9] was above 16.7 µM throughout. The GI50 in assay [3] was 0.00187 µM and 0.0102 µM; in assay [4] it was 0.000953 µM and 0.00636 µM; in assay [5] it was 0.00119 µM and 0.00539 µM; in assay [6] it was 0.00245 µM and 0.00876 µM; in [8] it was above 16.7 µM.

As to `CCc1ccc2c(c1)C(=O)c1c-2n(CCCBr)c(=O)c2cc([N+](=O)[O-])ccc12`, the GI50 in assay [1] was above 50 µM; in [2], above 50 µM; in assay [3], 21.3 µM; in [4] it was above 50 µM; in [5], above 50 µM; in [7], above 50 µM. The GI50 in assay [8] and in [9] was above 50 µM in each case. Besides, the TGI in assay [1], in assay [2], in assay [3], in assay [4], in [5] and in [7] was above 50 µM in each case. In addition, the TGI in assay [8] and in assay [9] was above 50 µM throughout.

On to `COc1ccc(-n2/c(=N/C(=S)N(C)C)ss/c2=N\C(=S)N(C)C)cc1`, for which the TGI in assay [1], in [2], in [3], in assay [4], in assay [5] and in [6] was above 100 µM each time. For the same compound, the TGI in assay [8] and in assay [9] was above 100 µM throughout.

For the compound `c1cc2c(cc1NC1=NCCO1)CCC2`, the TGI in assay [1], in assay [2], in assay [3], in assay [4], in assay [6] and in assay [7] was above 10 µM in each case.
